From paper PMC8177795 (Cancer Science, 2021)
Entries after “also recorded” stand apart in the source; their conditions may differ.

Legend:
[1] = Safety and tolerability; assay type: in vivo, Japanese patients
[2] = test system: r/r MCL; conditions: cited from earlier work
[3] = r/r CLL; cited from earlier work

CC#CC(=O)N1CCC[C@H]1c1nc(-c2ccc(C(=O)Nc3ccccn3)cc2)c2c(N)nccn12 [acalabrutinib]
AE of clinical interest: Thrombocytopenia ([1]; Total (N = 25)): 5 (20.0) n (%)
AE of clinical interest: Tumor lysis syndrome ([1]; Total (N = 25)): 1 (4.0) n (%)
Patients with any AE of clinical interest ([1]; Total (N = 25)): 22 (88.0) n (%)
Patients with any SAE ([1]; Total (N = 25)): 6 (24.0) n (%)
SAE: Abdominal pain upper ([1]; Total (N = 25)): 1 (4.0) n (%)
SAE: Anemia ([1]; Total (N = 25)): 1 (4.0) n (%)
SAE: Blood and lymphatic system disorders ([1]; Total (N = 25)): 1 (4.0) n (%)
SAE: Colon cancer ([1]; Total (N = 25)): 1 (4.0) n (%)
SAE: Gastrointestinal disorders ([1]; Total (N = 25)): 1 (4.0) n (%)
SAE: Infections and infestations ([1]; Total (N = 25)): 3 (12.0 n (%)
SAE: Neoplasms benign, malignant, and unspecified (incl. cysts and polyps) ([1]; Total (N = 25)): 1 (4.0) n (%)
SAE: Pneumonia ([1]; Total (N = 25)): 3 (12.0) n (%)
AEs of clinical interest, patients ([1]; all 25 treated patients): 88%
AEs resulting in treatment discontinuation or death ([1]; all 25 treated patients): No AEs resulted in treatment discontinuation or death; also recorded: No AEs with the outcome of death or AEs/SAEs leading to treatment discontinuation were reported
Grade 4 AEs, patients ([1]; all 25 treated patients): 20%
Headache (any AE), patients ([1]; all 25 treated patients): 32%
Rash (any AE), patients ([1]; all 25 treated patients): 28%
SAEs related to treatment, patients ([1]; all 25 treated patients): 16%
Serious adverse events (SAEs), patients ([1]; all 25 treated patients): 24%
Treatment‐related adverse events, patients ([1]; all 25 treated patients): 88%
Treatment‐related headache, patients ([1]; all 25 treated patients): 28%
Treatment‐related purpura, patients ([1]; all 25 treated patients): 24%
AE of clinical interest: Anemia ([1]; r/r CLL/SLL cohort (N = 9)): 2 (22.2) n (%)
AE of clinical interest: Atrial fibrillation ([1]; r/r CLL/SLL cohort (N = 9)): 0 n (%)
AE of clinical interest: Cardiac events ([1]; r/r CLL/SLL cohort (N = 9)): 0 n (%)
AE of clinical interest: Hemorrhage ([1]; r/r CLL/SLL cohort (N = 9)): 4 (44.4) n (%)
AE of clinical interest: Hepatotoxicity ([1]; r/r CLL/SLL cohort (N = 9)): 1 (11.1) n (%)
AE of clinical interest: Infections ([1]; r/r CLL/SLL cohort (N = 9)): 6 (66.7) n (%)
AE of clinical interest: Interstitial lung disease/pneumonitis ([1]; r/r CLL/SLL cohort (N = 9)): 0 n (%)
AE of clinical interest: Leukopenia ([1]; r/r CLL/SLL cohort (N = 9)): 3 (33.3) n (%)
AE of clinical interest: Neutropenia ([1]; r/r CLL/SLL cohort (N = 9)): 3 (33.3) n (%)
AE of clinical interest: Other hemorrhage ([1]; r/r CLL/SLL cohort (N = 9)): 4 (44.4) n (%)
AE of clinical interest: Other leukopenia ([1]; r/r CLL/SLL cohort (N = 9)): 0 n (%)
AE of clinical interest: Second primary malignancies (excl. nonmelanoma skin cancer) ([1]; r/r CLL/SLL cohort (N = 9)): 1 (11.1) n (%)
AE of clinical interest: Second primary malignancy ([1]; r/r CLL/SLL cohort (N = 9)): 1 (11.1) n (%)
AE of clinical interest: Thrombocytopenia ([1]; r/r CLL/SLL cohort (N = 9)): 1 (11.1) n (%)
AE of clinical interest: Tumor lysis syndrome ([1]; r/r CLL/SLL cohort (N = 9)): 0 n (%)
Patients with any AE of clinical interest ([1]; r/r CLL/SLL cohort (N = 9)): 8 (88.9) n (%)
Patients with any SAE ([1]; r/r CLL/SLL cohort (N = 9)): 2 (22.2) n (%)
SAE: Abdominal pain upper ([1]; r/r CLL/SLL cohort (N = 9)): 0 n (%)
SAE: Anemia ([1]; r/r CLL/SLL cohort (N = 9)): 0 n (%)
SAE: Blood and lymphatic system disorders ([1]; r/r CLL/SLL cohort (N = 9)): 0 n (%)
SAE: Colon cancer ([1]; r/r CLL/SLL cohort (N = 9)): 1 (11.1) n (%)
SAE: Gastrointestinal disorders ([1]; r/r CLL/SLL cohort (N = 9)): 0 n (%)
SAE: Infections and infestations ([1]; r/r CLL/SLL cohort (N = 9)): 1 (11.1) n (%)
SAE: Neoplasms benign, malignant, and unspecified (incl. cysts and polyps) ([1]; r/r CLL/SLL cohort (N = 9)): 1 (11.1) n (%)
SAE: Pneumonia ([1]; r/r CLL/SLL cohort (N = 9)): 1 (11.1) n (%)
AE of clinical interest: Anemia ([1]; r/r MCL cohort (N = 13)): 3 (23.1) n (%)
AE of clinical interest: Atrial fibrillation ([1]; r/r MCL cohort (N = 13)): 1 (7.7) n (%)
AE of clinical interest: Cardiac events ([1]; r/r MCL cohort (N = 13)): 1 (7.7) n (%)
AE of clinical interest: Hemorrhage ([1]; r/r MCL cohort (N = 13)): 4 (30.8) n (%)
AE of clinical interest: Hepatotoxicity ([1]; r/r MCL cohort (N = 13)): 2 (15.4) n (%)
AE of clinical interest: Infections ([1]; r/r MCL cohort (N = 13)): 7 (53.8) n (%)
AE of clinical interest: Interstitial lung disease/pneumonitis ([1]; r/r MCL cohort (N = 13)): 1 (7.7) n (%)
AE of clinical interest: Leukopenia ([1]; r/r MCL cohort (N = 13)): 4 (30.8) n (%)
AE of clinical interest: Neutropenia ([1]; r/r MCL cohort (N = 13)): 3 (23.1) n (%)
AE of clinical interest: Other hemorrhage ([1]; r/r MCL cohort (N = 13)): 4 (30.8) n (%)
AE of clinical interest: Other leukopenia ([1]; r/r MCL cohort (N = 13)): 3 (23.1) n (%)
AE of clinical interest: Second primary malignancies (excl. nonmelanoma skin cancer) ([1]; r/r MCL cohort (N = 13)): 0 n (%)
AE of clinical interest: Second primary malignancy ([1]; r/r MCL cohort (N = 13)): 0 n (%)
AE of clinical interest: Thrombocytopenia ([1]; r/r MCL cohort (N = 13)): 3 (23.1) n (%)
AE of clinical interest: Tumor lysis syndrome ([1]; r/r MCL cohort (N = 13)): 1 (7.7) n (%)
Patients with any AE of clinical interest ([1]; r/r MCL cohort (N = 13)): 11 (84.6) n (%)
Patients with any SAE ([1]; r/r MCL cohort (N = 13)): 3 (23.1) n (%)
SAE: Abdominal pain upper ([1]; r/r MCL cohort (N = 13)): 1 (7.7) n (%)
SAE: Anemia ([1]; r/r MCL cohort (N = 13)): 0 n (%)
SAE: Blood and lymphatic system disorders ([1]; r/r MCL cohort (N = 13)): 0 n (%)
SAE: Colon cancer ([1]; r/r MCL cohort (N = 13)): 0 n (%)
SAE: Gastrointestinal disorders ([1]; r/r MCL cohort (N = 13)): 1 (7.7) n (%)
SAE: Infections and infestations ([1]; r/r MCL cohort (N = 13)): 2 (15.4) n (%)
SAE: Neoplasms benign, malignant, and unspecified (incl. cysts and polyps) ([1]; r/r MCL cohort (N = 13)): 0 n (%)
SAE: Pneumonia ([1]; r/r MCL cohort (N = 13)): 2 (15.4) n (%)
Headache, patients [2]: 38%
Headache, patients [3]: 43%
